{"source": "patent US20130172294A1", "about": "“Treatment with VB-201” (Vascular Biogenics Ltd., priority 2010, published 2013)", "test": "Repeated daily dose pharmacokinetics, 40 and 80 mg (Example 4)", "type": "in vivo, human", "protocol": "Determination of VB-201 concentrations in plasma was performed using an HPLC-MS/MS (high performance liquid chromatography with tandem mass spectrometric detection) assay. Calibration was for a range of from 5 to 500 ng/ml for low doses and from 50 to 5000 ng/ml for high doses. Pharmacokinetic parameters were estimated by using a non-compartmental method, except for the AUC (area under curve), which was determined using a (log-) trapezoidal rule as the area above the previous trough level. […] The subjects were all healthy volunteers. […] 6 subjects received a placebo. The VB-201 was formulated in non-enterocoated capsules. Blood was collected for pharmacokinetic evaluation on day 1 (40 mg cohort) and on day 14 (40 and 80 mg cohorts).", "data": [{"smiles": "CCCCCCCCCCCCCCCCOCC(COP(=O)([O-])OCC[N+](C)(C)C)OCCCCC(=O)O", "note": "(centres unmarked) [VB-201, 1-hexadecyl-2-(4′-carboxybutyl)-glycerol-3-phosphocholine]", "values": [{"measurement": "AUC(0-infinity)", "setting": "daily 40 mg, Day 1", "value": "31952 ± 9680", "unit": "ng·h/mL"}, {"measurement": "Cl/F (0-24)", "setting": "daily 40 mg, Day 1", "value": "2.837 ± 1.064", "unit": "L/h"}, {"measurement": "Cl/F(0-infinity)", "setting": "daily 40 mg, Day 1", "value": "1.346 ± 0.401", "unit": "L/h"}, {"measurement": "Cmax", "setting": "daily 40 mg, Day 1", "value": "923.7 ± 287.4", "unit": "ng/mL"}, {"measurement": "Ke", "setting": "daily 40 mg, Day 1", "value": "0.0305 ± 0.0124", "unit": "h⁻¹"}, {"measurement": "MTT (0-24)", "setting": "daily 40 mg, Day 1", "value": "12.0 ± 0.5", "unit": "h"}, {"measurement": "MTT(0-infinity)", "setting": "daily 40 mg, Day 1", "value": "41.3 ± 17.6", "unit": "h"}, {"measurement": "T1/2", "setting": "daily 40 mg, Day 1", "value": "26.8 ± 13.0", "unit": "h"}, {"measurement": "Tmax", "setting": "daily 40 mg, Day 1", "value": "8.7 ± 3.8", "unit": "h"}, {"measurement": "AUC(0-24)", "setting": "daily 40 mg, Day 14", "value": "47393 ± 16792", "unit": "ng·h/mL"}, {"measurement": "AUC(0-infinity)", "setting": "daily 40 mg, Day 14", "value": "117013 ± 55816", "unit": "ng·h/mL"}, {"measurement": "Cl/F (0-24)", "setting": "daily 40 mg, Day 14", "value": "0.970 ± 0.436", "unit": "L/h"}, {"measurement": "Cl/F(0-infinity)", "setting": "daily 40 mg, Day 14", "value": "0.405 ± 0.172", "unit": "L/h"}, {"measurement": "Cmax", "setting": "daily 40 mg, Day 14", "value": "2544.6 ± 800.5", "unit": "ng/mL"}, {"measurement": "Ke", "setting": "daily 40 mg, Day 14", "value": "0.0270 ± 0.0111", "unit": "h⁻¹"}, {"measurement": "MTT (0-24)", "setting": "daily 40 mg, Day 14", "value": "11.1 ± 0.4", "unit": "h"}, {"measurement": "MTT(0-infinity)", "setting": "daily 40 mg, Day 14", "value": "45.2 ± 18.8", "unit": "h"}, {"measurement": "T1/2", "setting": "daily 40 mg, Day 14", "value": "30.2 ± 13.6", "unit": "h"}, {"measurement": "Tmax", "setting": "daily 40 mg, Day 14", "value": "4.2 ± 2.0", "unit": "h"}, {"measurement": "AUC(0-24)", "setting": "daily 80 mg, Day 14", "value": "89779 ± 21751", "unit": "ng·h/mL"}, {"measurement": "AUC(0-infinity)", "setting": "daily 80 mg, Day 14", "value": "206918 ± 62474", "unit": "ng·h/mL"}, {"measurement": "Cl/F (0-24)", "setting": "daily 80 mg, Day 14", "value": "0.941 ± 0.247", "unit": "L/h"}, {"measurement": "Cl/F(0-infinity)", "setting": "daily 80 mg, Day 14", "value": "0.422 ± 0.144", "unit": "L/h"}, {"measurement": "Cmax", "setting": "daily 80 mg, Day 14", "value": "4820.2 ± 930.3", "unit": "ng/mL"}, {"measurement": "Ke", "setting": "daily 80 mg, Day 14", "value": "0.0251 ± 0.0048", "unit": "h⁻¹"}, {"measurement": "MTT (0-24)", "setting": "daily 80 mg, Day 14", "value": "11.0 ± 0.4", "unit": "h"}, {"measurement": "MTT(0-infinity)", "setting": "daily 80 mg, Day 14", "value": "41.5 ± 7.8", "unit": "h"}, {"measurement": "T1/2", "setting": "daily 80 mg, Day 14", "value": "28.5 ± 5.8", "unit": "h"}, {"measurement": "Tmax", "setting": "daily 80 mg, Day 14", "value": "6.0 ± 1.1", "unit": "h"}]}]}
